Where two headings read alike, the source gives them in different places.
Columns and labels:
tumor growth = tested on: tumor growth; design: method as in earlier work; settings: single oral doses of 100 mg/kg/day or 25, 50 and 100 mg/kg every other day, ref Yue et al., 2020, Nagaprashantha et al., 2011, Singhal et al., 2018a, 2018b; cited from earlier work
[1] = Oral pharmacokinetic study of 2HF in BALB/c mouse blood (HPLC-MS/MS, non-compartmental analysis); assay type: in vivo; settings: BALB/c mice, single oral dose 10 mg/kg, whole blood
Experimental: BALB/c mice, with six mice per group, received a single dose of 10 mg/kg 2HF that was solubilized in DMSO (2%) and suspended in Ora-plus® (Perrigo, Minneapolis, MN, United States). ORA-Plus is an aqueous-based vehicle consisting of suspending agents that have a high degree of colloidal activity, facilitating the process involved in the extemporaneous compounding of oral suspensions. Ora-Plus contains purified water, microcrystalline cellulose, sodium carboxymethylcellulose, xanthan gum, and carrageenan as suspending agents; calcium sulfate, sodium phosphate, and citric acid as buffering agents; simethicone as an antifoaming agent; and potassium sorbate and methylparaben as preservatives, as described in the datasheet. The doses were administered orally using a gavage needle.
Mouse blood (300 µL) was collected via the orbital plexus, one mouse per time, with six replicates (6 mice per time interval). For anesthesia, an ophthalmic solution of tetracaine hydrochloride (1%) and phenylephrine hydrochloride (0,1%) was used, and one drop was administered in the chosen orbital 5 min before collection. The collection was performed with […] Pasteur pipettes that were previously autoclaved, and blood was transferred to 1.5 mL microtubes that were also heparinized. The time intervals determined were 2.5, 5, 7.5, 10, 15, 30, 45, 60, 90, 120, and 240 min after administration of the compound. After collecting all samples, 2HF was extracted as described above.
The pharmacokinetic parameters were obtained by non-compartmental analysis (NCA) using the Phoenix WinNonlin® 8.1 program (CERTARA). The maximum blood peak concentration (Cmax) and time to peak concentration (Tmax) were obtained directly from the blood concentration-time profiles. The area under the concentration-time curve from time zero to time t (AUC0–t) was obtained using the trapezoidal method. The area under the total blood concentration-time curve from time zero to infinity (AUC0–∞) was calculated using Eq. 4 as follows: AUC0–∞=AUC0–t+Clast÷kel (4) where Clast is the concentration observed at the last time, and kel is the apparent elimination rate constant obtained from the terminal slope of the blood concentration-time curve after logarithmic transformation of the blood concentrations and application of linear regression.
The blood elimination half-life (t1/2) was calculated using Eq. 5 as follows: t1/2=ln2÷kel (5)
Apparent oral clearance (CL/F) and apparent volume of distribution (Vd/F) parameters were obtained from the blood concentrations and expressed normalized to bioavailability (F) because only oral data are available.

[2] = Stability of 2HF in mouse blood (short-term, postpreparative, freeze-thaw, long-term); assay type: in vitro ADME, BALB/c mouse; settings: for Deviation, short term stability / Mean concentration, short term stability: +22.0 °C; for Deviation, short term stability / Mean concentration, short term stability / Deviation, freeze-thaw stability / Mean concentration, freeze-thaw stability / Deviation, long-term stability / Mean concentration, long-term stability / Deviation, postpreparative stability / Mean concentration, postpreparative stability: n = 8; for Deviation, freeze-thaw stability / Mean concentration, freeze-thaw stability / Deviation, long-term stability / Mean concentration, long-term stability: −70.0 °C; for Deviation, freeze-thaw stability / Mean concentration, freeze-thaw stability: 6 cycles; for Deviation, postpreparative stability / Mean concentration, postpreparative stability: processed mouse blood sample, +10.0 °C
Experimental: Stability studies were initiated and completed before analyzing the studied samples. The stability in the biological matrix was evaluated through freezing and thawing cycles, short-term and long-term stability, and postpreparative. All tests were performed with eight replicates for each sample concentration level. To carry out the stability tests, an initial quantification test (TQI) was performed in accordance with local regulatory norms that aim to guarantee good practices through quality standards. In this test, samples of LQC […] and HQC […] were analyzed, in which the concentration was determined by utilizing a freshly prepared calibration curve. The number of replicates that were analyzed in each control was the same as that used in the stability tests. Freeze–thaw cycle temperatures are presented in Supplementary Table S4.
The stability of 2HF in BALB/c mouse blood was evaluated using short-term tests at 22 °C, postprocessing stability at +10 °C, stability in freeze–thaw cycles (n = 06 cycles) and long-term stability with the samples stored at −70 °C. In these assays, the quality controls of low and high concentrations, LQC: 3.00 ng/mL and HQC: 200.00 ng/mL, were used.

Leishmania amazonensis [3] = tested on: Leishmania amazonensis; design: method as in Gervazoni et al., 2018; settings: in vitro; ref Gervazoni et al., 2018; cited from earlier work
Leishmania amazonensis [4] = settings: ref Gervazoni et al., cited from earlier work; for In vivo effects in cutaneous leishmaniasis model: single oral dose/day, 2020
[5] = rat plasma, cited from earlier work
[6] = design: method as in Teng et al., 2012; settings: ref Teng et al., 2012; cited from earlier work
[7] = ref Gervazoni et al., 2020; cited from earlier work
[8] = orally administered to rats; ref Yang et al., 2019a; cited from earlier work
[9] = design: method as in Yang et al., 2019b; settings: rats, 10 mg/kg oral dose; ref Yang et al., 2019b; cited from earlier work
[10] = mouse blood, HQC nominal 200.00 ng/mL
[11] = mouse blood, LQC nominal 3.00 ng/mL
[12] = sensitive and cutaneous murine model, 2018
[13] = oral single dose 100 mg/kg, ref Zhao et al., 2020

For `O=C1CC(c2ccccc2O)Oc2ccccc21` (centres unmarked) [2HF, 2′-Hydroxyflavanone], the Tumor growth (tumor growth) is listed as “inhibited different types of tumor growth”, the AUC0-inf [1] is listed as 5,524.54 min x ng/mL and the AUC % extrap [1] is listed as 7.30%. For the same compound, the “Cl/F, total blood clearance” value [1] was 18.10 mL/min, the “Tmax, time to reach Cmax” value [1] was 5 min and the AUC0-t ([1]; trapezoidal method) was 5,120.98 min x ng/mL. The k el ([1]; mouse, NCA, read-out: Kel, elimination rate constant (converted)) was 0.000118 s⁻¹, the half-life ([1]; mouse, NCA, read-out: T1/2, elimination half-time) was 1.63 h and the Cmax ([1]; mouse, read-out: Cmax, maximum concentration) was 186 ng/mL. For the same compound, the Vd/F ([1]; mouse, read-out: Vd/F, volume of distribution) was 2.55 L, the “Deviations in stability tests” value ([2]; biological matrix, freezing and thawing, short duration, postprocessing and long duration) was “less than 15%” and the “Deviation, short term stability” value [2, 10] was 7.53%. The “Mean concentration, short term stability” value [2, 10] was 215.06 ng/mL, the “Deviation, short term stability” value [2, 11] was 4.59% and the “Mean concentration, short term stability” value [2, 11] was 3.14 ng/mL. For the same compound, the “Degradation in the biological matrix” value ([2]; mouse blood, all stability tests performed) was “no significant degradation”, the “Deviation, freeze-thaw stability” value [2, 10] was 4.68% and the “Mean concentration, freeze-thaw stability” value [2, 10] was 209.37 ng/mL. The “Deviation, freeze-thaw stability” value [2, 11] was 1.61%, the “Mean concentration, freeze-thaw stability” value [2, 11] was 3.05 ng/mL and the “Deviation, long-term stability” value [2, 10] was 5.42%. For the same compound, the “Mean concentration, long-term stability” value [2, 10] was 210.83 ng/mL, the “Deviation, long-term stability” value [2, 11] was −1.33% and the “Mean concentration, long-term stability” value [2, 11] was 2.96 ng/mL. For the same compound, the “Deviation, postpreparative stability” value ([2]; HQC nominal 200.00 ng/mL) was 11.08%, the “Mean concentration, postpreparative stability” value ([2]; HQC nominal 200.00 ng/mL) was 222.16 ng/mL and the “Deviation, postpreparative stability” value ([2]; LQC nominal 3.00 ng/mL) was 10.11%. The “Mean concentration, postpreparative stability” value ([2]; LQC nominal 3.00 ng/mL) was 3.30 ng/mL, the “Inhibition of promastigote and amastigote forms” value (Leishmania amazonensis [3]) was “inhibit both the promastigote and amastigote forms” and the “In vivo activity in experimental model of cutaneous leishmaniasis” value (Leishmania amazonensis [4]; daily doses of 50 mg/kg for 35 days, 2018) was “significant effect”. For the same compound, the Lesion size (Leishmania amazonensis [4]; [12]) was “decrease the lesion size” and the Parasitic load (Leishmania amazonensis [4]; [12]) was “almost cease the parasitic load”.
In the case of `COc1cc(O)cc(O)c1C(=O)/C=C/c1ccccc1` [Cardamonin], the Tmax ([5]; oral single dose 5 mg/kg, ref Jaiswal et al., 2017) is given as 0.50 h.
For `O=C(CCc1ccc(O)cc1)c1c(O)cc(O)cc1O` [Phloretin], the T1/2 [5, 13] is listed as 2.83 h and the Tmax [5, 13] is listed as 1.25 h.
For `O=c1cc(-c2ccc(O)cc2)oc2cc(O)cc(O)c12` [apigenin], the Cmax [6] is listed as 42 ng/mL, the T1/2 [6] is listed as 2.11 h and the Tmax [6] is listed as 0.50 h. The T1/2 [7] was “less than 192 min” and the “In vivo effects in cutaneous leishmaniasis model” value (Leishmania amazonensis [4]) was “promising in vivo effects”.
In the case of `O=C1c2c(O)cc(O)cc2O[C@H](c2cc(O)c(O)c(O)c2)[C@H]1O` [dihydromyricetin], the T1/2 [8] is listed as 3.04 h and the Tmax [8] is listed as 0.57 h.
For `O=C1c2c(O)cc(O)cc2O[C@H](c2ccc(O)c(O)c2)[C@H]1O` [dihydroquercetin], the T1/2 [8] is listed as 2.32 h and the Tmax [8] is listed as 0.28 h.
In the case of `COc1cc(O)c(C(=O)/C=C/c2ccccc2)c(OC)c1` [flavokavain B], the Cmax [9] is given as 265.2 ng/mL, the T1/2 [9] is given as 2.76 h and the “Time of Cmax” value [9] is given as 1 h.
In the case of `O=c1c(O)c(-c2cc(O)c(O)c(O)c2)oc2cc(O)cc(O)c12` [myricetin], the T1/2 [8] is listed as 2.46 h and the Tmax [8] is listed as 0.22 h.
For `O=c1c(O)c(-c2ccc(O)c(O)c2)oc2cc(O)cc(O)c12` [quercetin], the T1/2 [7] is listed as “less than 192 min”, the T1/2 [8] is listed as 3.00 h and the Tmax [8] is listed as 0.25 h. The “In vivo effects in cutaneous leishmaniasis model” value (Leishmania amazonensis [4]) was “promising in vivo effects”.

From PMC10033538, “Analysis of 2′-hydroxyflavanone (2HF) in mouse whole blood by HPLC–MS/MS for the determination of pharmacokinetic parameters” (Frontiers in Chemistry, 2023)
